# Experimental data from ChEMBL document CHEMBL1201862, “PubChem BioAssay data set” (2004).
#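 Interpolation was linear, between the two tested concentrations surrounding the appropriate level; five concentrations were tested over 48 hours in 96-well plates. Here, GI50 denotes the concentration required for 50% inhibition of growth.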 Calls of active or inactive are those of the source. Rule as the data show it: active = GI50 up to about 1.1 µM and inactive = higher.
# How the values were obtained:
# Experiment in all cases: NCI-60 cell line screen, 48 h
# KM12 = test system: KM12
# PC-3 = test system: PC-3
# SW-620 = test system: SW-620
# UACC-257 = test system: UACC-257
# HOP-62 = test system: HOP-62
# A549 = test system: A549
# MOLT-4 = test system: MOLT-4
# BT-549 = test system: BT-549
# LOX IMVI = test system: LOX IMVI
# NCI-H522 = test system: NCI-H522
# HCT-116 = test system: HCT-116
# EKVX = test system: EKVX
# NCI-H226 = test system: NCI-H226
# NCI/ADR-RES = test system: NCI/ADR-RES
# OVCAR-4 = test system: OVCAR-4
# SR = test system: SR
# RXF 393 = test system: RXF 393
# CCRF-CEM = test system: CCRF-CEM
# M14 = test system: M14
# MDA-MB-435 = test system: MDA-MB-435
# UO-31 = test system: UO-31
# MDA-MB-231 = test system: MDA-MB-231
# A498 = test system: A498
# SNB-75 = test system: SNB-75
# SN12C = test system: SN12C
# RPMI-8226 = test system: RPMI-8226
# SK-MEL-2 = test system: SK-MEL-2
# SK-MEL-5 = test system: SK-MEL-5
# SF-295 = test system: SF-295
# HOP-92 = test system: HOP-92
# Hs-578T = test system: Hs-578T
# T47D = test system: T47D
# IGROV-1 = test system: IGROV-1
# UACC-62 = test system: UACC-62
# U-251 = test system: U-251
# SF-539 = test system: SF-539
# HCC 2998 = test system: HCC 2998
# 786-0 = test system: 786-0
# SNB-19 = test system: SNB-19
# Malme-3M = test system: Malme-3M
# OVCAR-3 = test system: OVCAR-3
# CAKI-1 = test system: CAKI-1
# DU-145 = test system: DU-145
# K562 = test system: K562
# SF-268 = test system: SF-268
# HL-60 = test system: HL-60
# OVCAR-5 = test system: OVCAR-5
# HCT-15 = test system: HCT-15
# NCI-H23 = test system: NCI-H23
# MCF7 = test system: MCF7
# ACHN = test system: ACHN
# TK-10 = test system: TK-10
# MDA-N = test system: MDA-N
# OVCAR-8 = test system: OVCAR-8
# COLO 205 = test system: COLO 205
# NCI-H460 = test system: NCI-H460
# SK-OV-3 = test system: SK-OV-3
# HT-29 = test system: HT-29
# SK-MEL-28 = test system: SK-MEL-28
smiles,measurement,setting,value
COc1ccc(/N=C(Nc2ccc(OC)cc2)/C(=N/c2ccc(OC)cc2)Nc2ccc(OC)cc2)cc1,GI50,KM12,14.7 µM (inactive)
same,GI50,PC-3,3.9 µM (inactive)
same,GI50,SW-620,> 100 µM (inactive)
same,GI50,UACC-257,> 100 µM (inactive)
same,GI50,HOP-62,> 100 µM (inactive)
same,GI50,A549,96.2 µM (inactive)
same,GI50,MOLT-4,4.25 µM (inactive)
same,GI50,BT-549,> 100 µM (inactive)
same,GI50,LOX IMVI,> 100 µM (inactive)
same,GI50,NCI-H522,> 100 µM (inactive)
same,GI50,HCT-116,> 100 µM (inactive)
same,GI50,EKVX,> 100 µM (inactive)
same,GI50,NCI-H226,> 100 µM (inactive)
same,GI50,NCI/ADR-RES,> 100 µM (inactive)
same,GI50,OVCAR-4,> 100 µM (inactive)
same,GI50,SR,48.2 µM (inactive)
same,GI50,RXF 393,> 100 µM (inactive)
same,GI50,CCRF-CEM,36 µM (inactive)
same,GI50,M14,> 100 µM (inactive)
same,GI50,MDA-MB-435,> 100 µM (inactive)
same,GI50,UO-31,5.25 µM (inactive)
same,GI50,MDA-MB-231,> 100 µM (inactive)
same,GI50,A498,> 100 µM (inactive)
same,GI50,SNB-75,1.95 µM (inactive)
same,GI50,SN12C,> 100 µM (inactive)
same,GI50,RPMI-8226,5.66 µM (inactive)
same,GI50,SK-MEL-2,> 100 µM (inactive)
same,GI50,SK-MEL-5,> 100 µM (inactive)
same,GI50,SF-295,> 100 µM (inactive)
same,GI50,HOP-92,> 100 µM (inactive)
same,GI50,Hs-578T,37.1 µM (inactive)
same,GI50,T47D,> 100 µM (inactive)
same,GI50,IGROV-1,> 100 µM (inactive)
same,GI50,UACC-62,> 100 µM (inactive)
same,GI50,U-251,> 100 µM (inactive)
same,GI50,SF-539,> 100 µM (inactive)
same,GI50,HCC 2998,> 100 µM (inactive)
same,GI50,786-0,> 100 µM (inactive)
same,GI50,SNB-19,> 100 µM (inactive)
same,GI50,Malme-3M,> 100 µM (inactive)
same,GI50,OVCAR-3,> 100 µM (inactive)
same,GI50,CAKI-1,> 100 µM (inactive)
same,GI50,DU-145,> 100 µM (inactive)
same,GI50,K562,15 µM (inactive)
same,GI50,SF-268,> 100 µM (inactive)
same,GI50,HL-60,14.1 µM (inactive)
same,GI50,OVCAR-5,> 100 µM (inactive)
same,GI50,HCT-15,> 100 µM
same,GI50,NCI-H23,> 100 µM (inactive)
same,GI50,MCF7,> 100 µM (inactive)
same,GI50,ACHN,> 100 µM (inactive)
same,GI50,TK-10,> 100 µM (inactive)
same,GI50,MDA-N,> 100 µM (inactive)
same,GI50,OVCAR-8,> 100 µM (inactive)
same,GI50,COLO 205,> 100 µM (inactive)
same,GI50,NCI-H460,> 100 µM (inactive)
same,GI50,SK-OV-3,> 100 µM (inactive)
same,GI50,HT-29,> 100 µM (inactive)
same,GI50,SK-MEL-28,> 100 µM (inactive)
O=c1[nH]c(C23CC4CC(CC(C4)C2)C3)cc2c1c(=O)oc1ccccc12,GI50,KM12,14.5 µM (inactive)
same,GI50,PC-3,3.27 µM (inactive)
same,GI50,SW-620,7.59 µM (inactive)
same,GI50,UACC-257,19.8 µM (inactive)
same,GI50,HOP-62,2.7 µM (inactive)
same,GI50,A549,2.83 µM (inactive)
same,GI50,MOLT-4,10.5 µM (inactive)
same,GI50,BT-549,11.2 µM (inactive)
same,GI50,LOX IMVI,2.95 µM (inactive)
same,GI50,NCI-H522,2.58 µM (inactive)
same,GI50,HCT-116,3.06 µM (inactive)
same,GI50,EKVX,0.32 µM (active)
same,GI50,NCI-H226,2.19 µM (inactive)
same,GI50,NCI/ADR-RES,3.96 µM (inactive)
same,GI50,OVCAR-4,3.15 µM (inactive)
same,GI50,SR,0.366 µM (active)
same,GI50,RXF 393,2.35 µM (inactive)
same,GI50,CCRF-CEM,12.5 µM (inactive)
same,GI50,M14,8.65 µM (inactive)
same,GI50,MDA-MB-435,13.4 µM (inactive)
same,GI50,UO-31,1.61 µM (inactive)
same,GI50,MDA-MB-231,3.4 µM (inactive)
same,GI50,A498,2.26 µM (inactive)
same,GI50,SNB-75,2.53 µM (inactive)
same,GI50,SN12C,9.18 µM (inactive)
same,GI50,RPMI-8226,3.08 µM (inactive)
same,GI50,SK-MEL-2,13.8 µM (inactive)
same,GI50,SK-MEL-5,4.6 µM (inactive)
same,GI50,SF-295,3.71 µM (inactive)
same,GI50,HOP-92,1.04 µM (active)
same,GI50,Hs-578T,1.1 µM (active)
same,GI50,T47D,8.89 µM (inactive)
same,GI50,IGROV-1,2.32 µM (inactive)
same,GI50,UACC-62,13.4 µM (inactive)
same,GI50,U-251,2.53 µM (inactive)
same,GI50,SF-539,4.53 µM (inactive)
same,GI50,HCC 2998,5.31 µM (inactive)
same,GI50,786-0,1.61 µM (inactive)
same,GI50,SNB-19,4.98 µM (inactive)
same,GI50,Malme-3M,3.65 µM (inactive)
same,GI50,OVCAR-3,4.42 µM (inactive)
same,GI50,CAKI-1,1.86 µM (inactive)
same,GI50,DU-145,6.31 µM (inactive)
same,GI50,K562,4.07 µM (inactive)
same,GI50,SF-268,0.944 µM (active)
same,GI50,HL-60,29.4 µM (inactive)
same,GI50,OVCAR-5,4.82 µM (inactive)
same,GI50,HCT-15,13.8 µM
same,GI50,NCI-H23,9.57 µM (inactive)
same,GI50,MCF7,6 µM (inactive)
same,GI50,ACHN,2.92 µM (inactive)
same,GI50,TK-10,3.43 µM (inactive)
same,GI50,MDA-N,12.8 µM (inactive)
same,GI50,OVCAR-8,3.19 µM (inactive)
same,GI50,COLO 205,10 µM (inactive)
same,GI50,NCI-H460,2.62 µM (inactive)
same,GI50,SK-OV-3,3.25 µM (inactive)
same,GI50,HT-29,3.52 µM (inactive)
same,GI50,SK-MEL-28,5.86 µM (inactive)
